Tests used:
Format in all cases: binding
DOT1L (1-416) = biological target: T1, DOT1L (1-416) (Homo sapiens, UniProt Q8TEK3); assay: STD-NMR fragment screening, DOT1L; conditions: 1 = hit, 0 = no hit
T1 construct: made in house; host or cells: E. coli BL21 (DE3) pLysS
Experimental: (§1) All fragments were stored at −20°C as solids in argon flushed glass bottles. For NMR screening, fragments were weighed and dissolved in DMSO-d6 to a stock concentration of 300 mM. Mother plates were prepared with a 100 mM concentration. From these plates, daughter plates were prepared with the fragments mixed in the plates to a concentration of 50 mM for each fragment. Daughter plates were opened a maximum of eight times. The plates were argon flushed and sealed with a HT121TS (HTA) and Foil Heat Seal (Biozym).
(§2) For long time measurements, like the protein ^1H NMR spectrum, the buffer exchange was performed twice to reduce residual buffer peaks. All experiments were performed on a Bruker Avance III HDX 700 instrument, equipped with a 5 mm Prodigy TCI cryo-probehead. For every protein, a standard ^1H NMR experiment with 1 k scans and water suppression through presaturation was performed. […] The on-resonance frequency, which was determined from the ^1H NMR spectra of the protein, was between 0.5 and 0.6 ppm; 40 ppm was used as the off-resonance frequency. For an interleaved acquisition of the on- and off-resonance, a pseudo-2D scheme was applied. The saturation was done by Gaussian pulses with a length of 50 ms and 60 dB of attenuation, with an interpulse delay of 1 ms leading to an excitation bandwidth of about 42 Hz. The screening was done with 16 scans of on- and off-resonance scans each, with a 3 s saturation time. The samples contained final concentrations of 20 µM protein, 10% (^V/V) DMSO-d6, and 1 mM of each of the two fragments. A ^1H-NMR experiment was performed for each compound to act as a reference spectrum in the STD experiments. All NMR experiments were carried out at 25°C.
(§3) Fifteen of these compounds contain the same halogen twice. No compound bears mixtures of different halogen atoms. Four proteins (AAK1, CAMK1G, IDO1, and DOT1L) were screened against this HEFLib using STD-NMR. A fragment was considered a hit if the peak intensity in the difference spectrum was three times higher than the local background noise. […] Chemical compatibility and peak complementarity were assured for these mixtures. Samples containing more than two fragments were avoided to minimize the possible target competition and to decrease the risk of fragment interactions. […] The ^1H reference NMR spectrum of the mixture is shown in red for comparison. […] As fragment mixtures can lead to competitive effects between their fragments, it is not advised to use the quantification of peak mixtures for hit ranking.

IDO1 (1-435) = biological target: T2, IDO1 (1-435) (Homo sapiens, UniProt P14902); assay: STD-NMR fragment screening, IDO1; conditions: 1 = hit, 0 = no hit
T2 construct: His-tag of pET15b with TEV site (thrombin site replaced) (cleaved yes); made in house; host or cells: E. coli Rosetta 2 (DE3) pLysS
T2 sequence (P14902 whole entry, the tested form may be a part): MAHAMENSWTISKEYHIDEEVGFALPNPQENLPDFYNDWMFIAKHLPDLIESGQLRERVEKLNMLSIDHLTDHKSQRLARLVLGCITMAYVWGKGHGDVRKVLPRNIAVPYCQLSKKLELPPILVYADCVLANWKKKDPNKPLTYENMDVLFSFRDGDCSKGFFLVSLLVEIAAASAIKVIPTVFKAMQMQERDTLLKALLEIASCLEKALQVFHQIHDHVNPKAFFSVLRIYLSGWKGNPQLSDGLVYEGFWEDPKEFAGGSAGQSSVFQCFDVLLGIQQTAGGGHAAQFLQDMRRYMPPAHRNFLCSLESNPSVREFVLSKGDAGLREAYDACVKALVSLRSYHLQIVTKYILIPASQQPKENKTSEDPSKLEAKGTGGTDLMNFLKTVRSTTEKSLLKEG
Experimental: as §1, §2, §3

CAMK1G (1-320) = biological target: T3, CAMK1G (1-320) (Homo sapiens, UniProt Q96NX5); assay: STD-NMR fragment screening, CAMK1G; conditions: 1 = hit, 0 = no hit
T3 construct: made in house; host or cells: E. coli BL21 (DE3) pLysS
T3 sequence (Q96NX5 1-320): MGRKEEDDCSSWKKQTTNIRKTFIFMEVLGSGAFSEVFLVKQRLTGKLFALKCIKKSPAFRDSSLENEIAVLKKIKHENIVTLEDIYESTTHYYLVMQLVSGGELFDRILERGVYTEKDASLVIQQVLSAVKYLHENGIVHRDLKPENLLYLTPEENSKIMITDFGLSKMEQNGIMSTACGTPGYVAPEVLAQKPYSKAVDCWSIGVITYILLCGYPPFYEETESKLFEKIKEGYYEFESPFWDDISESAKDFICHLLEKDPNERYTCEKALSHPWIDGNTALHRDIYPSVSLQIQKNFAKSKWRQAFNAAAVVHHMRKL
Experimental: as §1, §2, §3

AAK1 (121-471) = AAK1 (121-471) (Homo sapiens, UniProt Q2M2I8); assay: STD-NMR fragment screening, AAK1; conditions: for AAK1 (STD-NMR hit flag): 1 = hit, 0 = no hit
AAK1 (121-471), sequence (Q2M2I8 46-315 limits assumed): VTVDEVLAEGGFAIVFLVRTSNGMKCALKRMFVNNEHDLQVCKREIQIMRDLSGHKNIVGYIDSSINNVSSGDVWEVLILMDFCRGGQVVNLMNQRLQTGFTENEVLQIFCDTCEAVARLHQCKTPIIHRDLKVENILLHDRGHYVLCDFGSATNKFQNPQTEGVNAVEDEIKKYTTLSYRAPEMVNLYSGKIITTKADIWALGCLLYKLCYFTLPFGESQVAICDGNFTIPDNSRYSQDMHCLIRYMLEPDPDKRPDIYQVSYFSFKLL
Experimental: as §1, §2, §3

T1 sequence (Q8TEK3 1-416): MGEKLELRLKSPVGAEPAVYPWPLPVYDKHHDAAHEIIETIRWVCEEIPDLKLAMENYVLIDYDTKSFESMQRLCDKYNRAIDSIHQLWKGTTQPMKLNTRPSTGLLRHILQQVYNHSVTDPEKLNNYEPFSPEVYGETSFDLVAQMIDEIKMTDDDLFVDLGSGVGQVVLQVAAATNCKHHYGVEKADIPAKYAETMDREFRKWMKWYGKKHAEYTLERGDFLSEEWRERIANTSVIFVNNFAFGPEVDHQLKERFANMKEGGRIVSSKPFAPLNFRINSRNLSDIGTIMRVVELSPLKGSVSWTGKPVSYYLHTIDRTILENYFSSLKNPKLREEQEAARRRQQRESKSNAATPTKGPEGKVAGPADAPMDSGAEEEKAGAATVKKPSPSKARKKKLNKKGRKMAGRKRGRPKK

Structure (SMILES) | DOT1L (STD-NMR hit flag) (DOT1L (1-416)) | IDO1 (STD-NMR hit flag) (IDO1 (1-435)) | CAMK1G (STD-NMR hit flag) (CAMK1G (1-320)) | AAK1 (STD-NMR hit flag) (AAK1 (121-471)) | STD-NMR hit (AAK1 (121-471); 1 mM fragment, 20 µM protein, hit if peak in difference spectrum three times higher than local noise)
Cc1cnc(C)c(Cl)n1 [Fragment B02297402] | 0 | 0 | 0 | 1 | –
CCn1ncc(Br)c1CNC [Fragment B02291155] | 0 | 0 | 0 | 0 | –
Clc1ccc(CN2CCNCC2)cn1 [Fragment B02290121] | 0 | 0 | 0 | 0 | –
O=C(c1ccc(Cl)cc1)N1CCOCC1 [Fragment B02297400] | 0 | 0 | 0 | 0 | –
COc1cc(Cl)cnc1OC [Fragment B02297394] | 0 | 1 | 1 | 1 | –
NC(=O)c1nc(Cl)n[nH]1 [Fragment B02290118] | 0 | 0 | 0 | 0 | –
CC(C)c1nsc(Cl)n1 [Fragment B02291237] | 0 | 0 | 0 | 0 | –
NC(CCO)c1ccc(Cl)cc1Cl (stereo not drawn) [Fragment B02289594] | 0 | 0 | 0 | 0 | –
Clc1ccncc1 [Fragment B02291269] | 0 | 0 | 0 | 0 | –
Cc1n[nH]c(C(=O)O)c1Br [Fragment B02294483] | 0 | 0 | 0 | 1 | –
Brc1ccc(C2CNCCN2)s1 (stereo not drawn) [Fragment B02297408] | 0 | 0 | 0 | 0 | –
Cc1nn(CC(=O)O)c(C)c1Cl [Fragment B02291243] | 0 | 1 | 1 | 0 | –
O=C(c1cc(Br)c[nH]1)N1CCOCC1 [Fragment B02290115] | 0 | 0 | 1 | 0 | –
OCc1ccc(Cl)nc1 [Fragment B02289606] | 0 | 0 | 0 | 0 | –
Cn1ccc(Br)n1 [Fragment B02289620] | 0 | 1 | 0 | 0 | –
Cc1n[nH]c(C)c1I [Fragment B02290459] | 1 | 1 | 1 | 1 | –
Oc1ccc(Cl)cc1 [Fragment 4485] | – | – | – | – | none of the signals of fragment 4485 (Signal 4 and 5) are distinguishable from the baseline noise

More lines, main results first:

DOT1L (STD-NMR hit flag) (DOT1L (1-416)) | IDO1 (STD-NMR hit flag) (IDO1 (1-435)) | CAMK1G (STD-NMR hit flag) (CAMK1G (1-320)) | AAK1 (STD-NMR hit flag) (AAK1 (121-471)) | Structure (SMILES) | STD-NMR hit (AAK1 (121-471); 1 mM fragment, 20 µM protein, hit if peak in difference spectrum three times higher than local noise)
0 | 1 | 0 | 1 | O=C(O)c1cc(Br)c(O)cc1O [Fragment B02297413] | –
0 | 1 | 0 | 0 | Cc1c(Cl)c([N+](=O)[O-])nn1CC(=O)O [Fragment B02290123] | –
0 | 0 | 1 | 0 | O=c1[nH]cc(Cl)cc1[N+](=O)[O-] [Fragment B02290460] | –
0 | 0 | 0 | 0 | O=C(O)c1ccnc(Cl)c1 [Fragment B02291239] | –
0 | 1 | 0 | 1 | Brc1cnn(-c2nnn[nH]2)c1 [Fragment B02290113] | –
0 | 0 | 0 | 1 | Nc1cnccc1I [Fragment B02289607] | –
0 | 0 | 1 | 0 | Cc1noc(C)c1Br [Fragment B02289596] | –
0 | 0 | 0 | 1 | Cn1c(Cl)cc(=O)n(C)c1=O [Fragment B02290465] | –
0 | 0 | 1 | 1 | Brc1cnn2cccnc12 [Fragment B02289610] | –
0 | 0 | 0 | 0 | Cc1nn(CCN)cc1Cl [Fragment B02291152] | –
0 | 0 | 0 | 0 | O=C(O)c1nn(Cn2cccn2)cc1Cl [Fragment B02291154] | –
0 | 0 | 0 | 0 | CS(=O)(=O)c1ccc(Cl)c(S(C)(=O)=O)c1 [Fragment B02291213] | –
0 | 0 | 0 | 0 | O=C(O)C(O)c1cccc(Cl)c1 (stereo not drawn) [Fragment B02297417] | –
0 | 0 | 0 | 0 | NCCCn1cc(Cl)cn1 [Fragment B02290117] | –
0 | 0 | 0 | 1 | OCc1c(Cl)nc2sccn12 [Fragment B02291233] | –
0 | 0 | 0 | 1 | Cc1ccc(N)c(Cl)n1 [Fragment B02289616] | –
0 | 0 | 0 | 0 | O=C(O)c1cnccc1Br [Fragment B02297403] | –
0 | 0 | 0 | 1 | Nc1ccc(Br)cn1 [Fragment B02291232] | –
0 | 1 | 0 | 0 | Nc1ncc(Br)cc1C(=O)O [Fragment B02289612] | –
0 | 0 | 1 | 1 | Nc1cnccc1Br [Fragment B02297424] | –
0 | 0 | 0 | 0 | COc1ccc(CN)c(Cl)c1 [Fragment B02290088] | –
0 | 0 | 0 | 0 | CC(=O)Nc1ccc(Cl)c(C(=O)O)n1 [Fragment B02297416] | –
0 | 0 | 0 | 0 | O=C(O)c1ccc(Cl)o1 [Fragment B02290466] | –
0 | 0 | 0 | 0 | Brc1cccc2c1CNC2 [Fragment B02291212] | –
0 | 0 | 0 | 0 | COc1ccc(I)cc1CNCCO [Fragment B02290112] | –

— publication PMC8847695 (Frontiers in Chemistry, 2022)
